Experimental findings from patent publication US20260356804A1, “SODIUM CHANNEL BLOCKING COMPOUNDS, DERIVATIVES THEREOF, AND METHODS OF THEIR USE” (LATIGO BIOTHERAPEUTICS, INC., priority 2022, published 2026) are described below.

pIC50: −log10 of the molar value. Counter-ions that a name gives are not always drawn. Like-named read-outs stand apart in the source and are kept apart here.

The test addresses T1, human Nav1.8/b3 (Homo sapiens, UniProt Q9Y5Y9).
T1 construct: expressed in transfected cells; host or cells: CHO
Nature of the test: Compound Profiling Human NaV1.8/β3 Cell Line—SyncroPatch384PE Assay (automated patch clamp, stably transfected CHO cells). It counts as cell-based. As to conditions: Nav1.8/b3 CHO cells.

The mark [1] stands for this setting: P1 (IC50, resting state block), P1 measurement, resting state block, holding potential −120 mV, third set of compounds.
Where [2] appears, read: P2 (IC50, inactivated state block), P2 measurement, inactivated state block, inactivation step −35 mV 10 sec, third set of compounds.
The mark [3] stands for this setting: P1 (IC50, resting state block), P1 measurement, resting state block, holding potential −120 mV, fourth set of compounds.
[4] abbreviates: P2 (IC50, inactivated state block), P2 measurement, inactivated state block, inactivation step −35 mV 10 sec, fourth set of compounds.
Setting [5] is: P1 (IC50, resting state block), P1 measurement, resting state block, holding potential −120 mV, second set of compounds.
[6] abbreviates: P2 (IC50, inactivated state block), P2 measurement, inactivated state block, inactivation step −35 mV 10 sec, second set of compounds.
Where [7] appears, read: P1 (IC50, resting state block), P1 measurement, resting state block, holding potential −120 mV, first set of compounds.
Setting [8] is: P2 (IC50, inactivated state block), P2 measurement, inactivated state block, inactivation step −35 mV 10 sec, first set of compounds.

T1 sequence (Q9Y5Y9 whole entry): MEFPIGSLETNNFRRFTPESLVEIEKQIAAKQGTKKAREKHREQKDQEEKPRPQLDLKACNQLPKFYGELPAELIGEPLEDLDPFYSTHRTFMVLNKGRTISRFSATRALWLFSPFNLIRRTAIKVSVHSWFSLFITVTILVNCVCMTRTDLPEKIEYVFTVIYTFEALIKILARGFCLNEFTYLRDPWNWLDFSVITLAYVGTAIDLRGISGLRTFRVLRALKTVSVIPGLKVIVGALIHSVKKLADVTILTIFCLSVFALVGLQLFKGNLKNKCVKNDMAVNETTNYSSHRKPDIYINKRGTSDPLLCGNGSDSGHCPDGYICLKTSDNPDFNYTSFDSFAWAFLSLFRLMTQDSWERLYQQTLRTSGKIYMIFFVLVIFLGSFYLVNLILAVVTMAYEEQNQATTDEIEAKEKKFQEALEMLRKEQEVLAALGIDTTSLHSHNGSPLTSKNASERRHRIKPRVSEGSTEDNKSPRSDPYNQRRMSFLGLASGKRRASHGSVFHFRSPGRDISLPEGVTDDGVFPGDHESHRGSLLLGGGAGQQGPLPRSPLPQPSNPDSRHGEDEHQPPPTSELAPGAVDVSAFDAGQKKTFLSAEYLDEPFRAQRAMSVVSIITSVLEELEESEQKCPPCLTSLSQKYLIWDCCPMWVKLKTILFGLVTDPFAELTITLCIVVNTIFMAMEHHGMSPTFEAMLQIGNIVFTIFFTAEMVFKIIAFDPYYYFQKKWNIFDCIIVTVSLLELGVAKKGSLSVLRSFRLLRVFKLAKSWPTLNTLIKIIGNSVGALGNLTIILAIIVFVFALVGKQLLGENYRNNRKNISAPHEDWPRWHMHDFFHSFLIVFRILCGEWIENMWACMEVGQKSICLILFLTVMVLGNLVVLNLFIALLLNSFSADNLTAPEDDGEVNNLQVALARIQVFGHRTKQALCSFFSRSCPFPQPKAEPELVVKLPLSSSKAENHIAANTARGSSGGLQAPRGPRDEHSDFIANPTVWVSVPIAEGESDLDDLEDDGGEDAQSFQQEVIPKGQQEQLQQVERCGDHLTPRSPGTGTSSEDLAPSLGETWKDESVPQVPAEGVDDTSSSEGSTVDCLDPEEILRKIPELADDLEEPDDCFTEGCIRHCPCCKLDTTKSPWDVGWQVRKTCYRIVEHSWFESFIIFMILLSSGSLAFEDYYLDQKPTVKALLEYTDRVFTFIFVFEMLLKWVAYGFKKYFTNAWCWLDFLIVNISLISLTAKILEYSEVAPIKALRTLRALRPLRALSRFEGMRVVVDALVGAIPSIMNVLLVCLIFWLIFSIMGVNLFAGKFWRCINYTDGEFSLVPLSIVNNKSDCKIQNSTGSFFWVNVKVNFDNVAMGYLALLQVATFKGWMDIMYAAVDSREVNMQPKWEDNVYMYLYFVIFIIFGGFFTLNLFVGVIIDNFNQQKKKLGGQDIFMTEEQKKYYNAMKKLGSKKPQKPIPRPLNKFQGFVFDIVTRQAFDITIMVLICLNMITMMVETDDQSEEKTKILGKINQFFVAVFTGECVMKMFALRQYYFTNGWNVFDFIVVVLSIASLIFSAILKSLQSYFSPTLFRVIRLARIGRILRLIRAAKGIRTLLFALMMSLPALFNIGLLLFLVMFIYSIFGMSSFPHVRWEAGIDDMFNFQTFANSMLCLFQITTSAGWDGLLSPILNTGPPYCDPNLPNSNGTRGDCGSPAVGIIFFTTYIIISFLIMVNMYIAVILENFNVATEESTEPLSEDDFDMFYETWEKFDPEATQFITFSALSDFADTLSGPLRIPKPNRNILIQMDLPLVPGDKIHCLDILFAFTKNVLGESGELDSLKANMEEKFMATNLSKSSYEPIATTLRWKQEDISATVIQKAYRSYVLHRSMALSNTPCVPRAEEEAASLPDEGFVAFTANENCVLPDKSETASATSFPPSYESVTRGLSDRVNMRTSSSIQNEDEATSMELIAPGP
T1 sequence (Q9NY72 23-215 partner): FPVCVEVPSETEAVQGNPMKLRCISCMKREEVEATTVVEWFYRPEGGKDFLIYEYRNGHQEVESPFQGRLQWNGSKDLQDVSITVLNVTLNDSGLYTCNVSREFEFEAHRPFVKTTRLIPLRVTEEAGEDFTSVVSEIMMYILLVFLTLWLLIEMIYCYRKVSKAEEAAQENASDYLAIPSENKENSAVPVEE

On to `Cc1nc(F)ccc1Oc1nnc(-c2ccc3c(c2)OCCO3)c(C)c1C(=O)Nc1cccc([S@](C)(=N)=O)c1` [Example 7C, (R)-6-(2,3-dihydrobenzo[b][1,4]dioxin-6-yl)-3-((6-fluoro-2-methylpyridin-3-yl)oxy)-5-methyl-N-(3-(S-methylsulfonimidoyl)phenyl)pyridazine-4-carboxamide], for which the pIC50 (in general, the IC50 on a negative log10 scale, so that one unit is a factor of ten) runs as follows: under setting [1], > 8.30; under setting [2], > 8.30.
`Cc1nc(F)ccc1Oc1nnc(C(F)(F)F)c(C)c1C(=O)Nc1cccc([S@@](C)(=O)=NC(=O)CN2CC(F)(F)C2)c1` [Example 28D, (R)—N-(3-(N-(2-(3,3-difluoroazetidin-1-yl)acetyl)-S-methylsulfonimidoyl)phenyl)-3-((6-fluoro-2-methylpyridin-3-yl)oxy)-5-methyl-6-(trifluoromethyl)pyridazine-4-carboxamide]: the negative logarithm of the IC50 (pIC50) by setting is: under setting [3], > 8.30; under setting [4], > 8.30.
Regarding `Cc1nc(F)ccc1Oc1ccc(C(F)(F)F)c(C)c1C(=O)Nc1cccc([S@@](C)(=O)=NC(=O)[C@@H](C)O)c1` [Example 28B], the pIC50 under setting [5] is > 8.30 and the pIC50 under setting [6] is > 8.30.
As for `Cc1nc(F)ccc1Oc1ncc(C(F)(F)F)c(C)c1C(=O)Nc1ccc(C(N)=O)cc1` [Example 118C], the pIC50 by setting is: under setting [1], > 8.30; under setting [2], > 8.30.
As to `COc1cc(C#N)ccc1Oc1ncc(Cl)c(C)c1C(=O)Nc1cccc(S(C)(=N)=O)c1` (stereo not shown) [Example 25C, 5-chloro-2-(4-cyano-2-methoxyphenoxy)-4-methyl-N-(3-(S-methylsulfonimidoyl)phenyl)nicotinamide], the pIC50 is > 8.30 under setting [1] and > 8.30 under setting [2].
Consider `Cc1nc(F)ccc1Oc1ncc(C(F)(F)F)c(C)c1C(=O)Nc1cccc([S@@](C)(=O)=NC(=O)C2(N)CC2)c1` [Example 5D, (R)—N-(3-(N-(1-aminocyclopropane-1-carbonyl)-S-methylsulfonimidoyl)phenyl)-2-((6-fluoro-2-methylpyridin-3-yl)oxy)-4-methyl-5-(trifluoromethyl)nicotinamide], for which the pIC50 was > 8.30 under setting [3] and > 8.30 under setting [4].
Consider `Cc1nc(F)ccc1Oc1cc(C(F)(F)F)c(Cl)cc1C(=O)Nc1ccc(F)c([S@+](C)[O-])c1` [Example 55A], for which the negative-log IC50 (pIC50) runs as follows: under setting [7], > 8.30; under setting [8], > 8.30.
`Cc1nc(F)ccc1Oc1nnc(C(F)(F)F)c(C)c1C(=O)Nc1cccc([S@@](C)(=O)=NC(=O)[C@@H](C)O)c1` [Example 19D, 3-((6-fluoro-2-methylpyridin-3-yl)oxy)-N-(3-((R)—N—((R)-2-hydroxypropanoyl)-S-methylsulfonimidoyl)phenyl)-5-methyl-6-(trifluoromethyl)pyridazine-4-carboxamide] showed a negative-log IC50 (pIC50) under setting [3] of 7.30 to 8.30 and a pIC50 under setting [4] of 7.30 to 8.30.
In the case of `Cc1nc(F)ccc1Oc1ccc(C(F)(F)F)c(C)c1C(=O)Nc1cccc([S@@](C)(=O)=NC(=O)CN)c1` [Example 26B], the negative logarithm of the IC50 (pIC50) reads like this: under setting [5], > 8.30; under setting [6], > 8.30.
Take `Cc1nc(F)ccc1Oc1nnc(C(F)(F)F)c(C)c1C(=O)Nc1cccc([S@@](C)(=O)=NC(=O)CO)c1` [Example 20D, (R)-3-((6-fluoro-2-methylpyridin-3-yl)oxy)-N-(3-(N-(2-hydroxyacetyl)-S-methylsulfonimidoyl)phenyl)-5-methyl-6-(trifluoromethyl)pyridazine-4-carboxamide]: the negative-log IC50 (pIC50) by setting is: under setting [3], 7.30 to 8.30; under setting [4], 7.30 to 8.30.
For the molecule `Cc1nc(F)ccc1Oc1cc(C(F)(F)F)c(Cl)c(C)c1C(=O)Nc1ccnc(C(N)=O)c1` [Example 62A], the negative logarithm of the IC50 (pIC50) under setting [7] was > 8.30 and the pIC50 under setting [8] is > 8.30.
As to `Cc1nc(F)ccc1Oc1nc(C(F)(F)F)c(Cl)c(C)c1C(=O)Nc1ccnc([S@](C)(=N)=O)c1` [Example 100C], the pIC50 is 7.30 to 8.30 under setting [1] and 7.30 to 8.30 under setting [2].
Take `Cc1nc(F)ccc1Oc1cc(C(F)(F)F)c(Cl)c(C)c1C(=O)Nc1cccc(C(N)=O)c1` [Example 61A]: the pIC50 was > 8.30 under setting [7] and > 8.30 under setting [8].
For the molecule `Cc1nc(F)ccc1Oc1cc(C(F)(F)F)c(Cl)c(F)c1C(=O)Nc1ccc(C(N)=O)cc1` [Example 37A], the pIC50 was > 8.30 under setting [7] and > 8.30 under setting [8].
On to `Cc1nc(F)ccc1Oc1cc(C(F)(F)F)c(Cl)cc1C(=O)Nc1cccc([S@@](C)(=O)=NC(=O)C(C)(C)N)c1` [Example 7B, (R)—N-(3-(N-(2-amino-2-methylpropanoyl)-S-methylsulfonimidoyl)phenyl)-5-chloro-2-((6-fluoro-2-methylpyridin-3-yl)oxy)-4-(trifluoromethyl)benzamide], for which the pIC50 was > 8.30 under setting [5] and > 8.30 under setting [6].
With `Cc1nc(F)ccc1Oc1ncc(C(F)(F)F)c(C)c1C(=O)Nc1cccc([S@@](C)(=O)=NC(=O)[C@@H]2C[C@@H](O)CN2)c1` [Example 17D, 2-((6-fluoro-2-methylpyridin-3-yl)oxy)-N-(3-((R)—N-((2S,4R)-4-hydroxypyrrolidine-2-carbonyl)-S-methylsulfonimidoyl)phenyl)-4-methyl-5-(trifluoromethyl)nicotinamide], the negative logarithm of the IC50 (pIC50) by setting is: under setting [3], > 8.30; under setting [4], > 8.30.
As to `Cc1nc(F)ccc1Oc1ncc(C(F)(F)F)c(C)c1C(=O)Nc1cccc([S@@](C)(=O)=NC(=O)[C@@H]2C[C@H](O)CN2)c1` [Example 27D, 2-((6-fluoro-2-methylpyridin-3-yl)oxy)-N-(3-((R)—N-((2S,4S)-4-hydroxypyrrolidine-2-carbonyl)-S-methylsulfonimidoyl)phenyl)-4-methyl-5-(trifluoromethyl)nicotinamide], the pIC50 under setting [3] is > 8.30 and the pIC50 under setting [4] was > 8.30.
On to `COc1c(Oc2cc(C(F)(F)F)nnc2C(=O)Nc2cccc(S(C)(=N)=O)c2)ccc(F)c1F` (stereo not shown) [Example 31C, 4-(3,4-difluoro-2-methoxyphenoxy)-N-(3-(S-methylsulfonimidoyl)phenyl)-6-(trifluoromethyl)pyridazine-3-carboxamide], for which the pIC50 by setting is: under setting [1], 6.70 to 7.00; under setting [2], 6.70 to 7.00.
In the case of `Cc1nc(F)ccc1Oc1cc(C(F)(F)F)ccc1C(=O)Nc1cccc([S@@](C)(=O)=NC(=O)[C@@H]2CCCN2)c1` [Example 8B, (S)—N—((R)-(3-(2-((6-fluoro-2-methylpyridin-3-yl)oxy)-4-(trifluoromethyl)benzamido)phenyl)(methyl)(oxo)-λ^6-sulfaneylidene)pyrrolidine-2-carboxamide formate], the negative-log IC50 (pIC50) by setting is: (P1 measurement, resting state block, holding potential −120 mV, second set of compounds, read-out: P1 (IC50, resting state block)) > 8.30; (P2 measurement, inactivated state block, inactivation step −35 mV 10 sec, second set of compounds, read-out: P2 (IC50, inactivated state block)) > 8.30.
For the molecule `Cc1nc(F)ccc1Oc1c(C(F)(F)F)ncc(F)c1C(=O)Nc1cccc([S@](C)(=N)=O)c1` [Example 36C, (R)-5-fluoro-3-((6-fluoro-2-methylpyridin-3-yl)oxy)-N-(3-(S-methylsulfonimidoyl)phenyl)-2-(trifluoromethyl)isonicotinamide], the pIC50 was < 6.70 under setting [1] and < 6.70 under setting [2].
In the case of `Cc1nc(F)ccc1Oc1ncc(-c2ccc(C#N)cc2)c(C)c1C(=O)Nc1cccc([S@](C)(=N)=O)c1` [Example 3C, (R)-5-(4-cyanophenyl)-2-((6-fluoro-2-methylpyridin-3-yl)oxy)-4-methyl-N-(3-(S-methylsulfonimidoyl)phenyl)nicotinamide], the negative-log IC50 (pIC50) runs as follows: under setting [1], 7.30 to 8.30; under setting [2], 7.30 to 8.30.
Take `Cc1nc(F)ccc1Oc1cc(C(F)(F)F)c(Cl)cc1C(=O)Nc1ccc(C(N)=O)cc1` [Example 68A]: the negative-log IC50 (pIC50) reads like this: under setting [7], 7.30 to 8.30; under setting [8], > 8.30.
`Cc1nc(F)ccc1Oc1nnc(C(F)(F)F)c(C)c1C(=O)Nc1cccc([S@@](C)(=O)=NC(=O)[C@H](C)O)c1` [Example 18D, 3-((6-fluoro-2-methylpyridin-3-yl)oxy)-N-(3-((R)—N—((S)-2-hydroxypropanoyl)-S-methylsulfonimidoyl)phenyl)-5-methyl-6-(trifluoromethyl)pyridazine-4-carboxamide]: the negative logarithm of the IC50 (pIC50) is > 8.30 under setting [3] and > 8.30 under setting [4].
For `Cc1nc(F)ccc1Oc1ncc(C(F)(F)F)c(C)c1C(=O)Nc1cccc([S@@](C)(=O)=NCCN)c1` [Example 43C, (R)—N-(3-(N-(2-aminoethyl)-S-methylsulfonimidoyl)phenyl)-2-((6-fluoro-2-methylpyridin-3-yl)oxy)-4-methyl-5-(trifluoromethyl)nicotinamide], the pIC50 under setting [1] was > 8.30 and the pIC50 under setting [2] is > 8.30.
Consider `Cc1nc(F)ccc1Oc1ncc(C(F)(F)F)c(C)c1C(=O)Nc1ccc(F)c(S(C)(=O)=O)c1` [Example 101C], for which the pIC50 (P1 measurement, resting state block, holding potential −120 mV, third set of compounds, read-out: P1 (IC50, resting state block)) is 7.30 to 8.30 and the negative-log IC50 (pIC50) (P2 measurement, inactivated state block, inactivation step −35 mV 10 sec, third set of compounds, read-out: P2 (IC50, inactivated state block)) is 7.30 to 8.30.
As for `Cc1cc(C#N)ccc1Oc1cc(C(F)(F)F)nnc1C(=O)Nc1cccc(S(C)(=O)=O)c1` [Example 29C, 4-(4-cyano-2-methylphenoxy)-N-(3-(methylsulfonyl)phenyl)-6-(trifluoromethyl)pyridazine-3-carboxamide], the pIC50 under setting [1] was < 6.70 and the pIC50 under setting [2] was < 6.70.
